Experimental data: patent US20200246284A1 (Academia Sinica, priority 2015, published 2020)
Values joined by “and” are separate entries in the source; they are usually repeats but may differ in a detail not shown here. Equal entries are not always repeated. Where two headings read alike, the source gives them in different places.

Legend:
[1] = test system: CV1 renal fibroblasts; test: Cytotoxicity normal tissue 72 hr; format: cell-based, African green monkey (Cercopithecus aethiops)
[2] = test system: Toledo; details: human
Description: (§1) After 72 hours, the cultures were pulsed with Alamar Blue overnight, and the fluorescent intensity of resulted cultures was measured by a Synergy H1 plate-reader (BioTek Inc).

[3] = test system: lymphoma cell lines (DLBCL GBC and ABC, mantle cell lymphoma); test: Cytotoxicity, panel of lymphoma cell lines (Tables 23, 24, 26); format: cell-based; details: Homo sapiens
[4] = test system: LY1; details: human
Description: as §1

[5] = test system: C57Bl/6 mice; test: Complete blood counts in healthy mice; format: in vivo, mouse
Description: This is particularly striking in the case of neutrophils, red blood cells and platelets, whose levels are the most frequent dose limiting toxicities seen in clinic evaluation of alkylating drug therapy. There was a 3-4-fold increase in monocytes. The only negative effect was a modest reduction in WBC numbers due to mild lymphopenia at day 10 in the BO-treated group.

[6] = test system: Ly18; test: Cytotoxicity DLBCL; details: read-out: cytotoxicity IC50; LY18, DLBCL GCB
Description: as §1

[7] = test system: Mino; test: Combination with BO-1055, MCL (Tables 28, 29); format: cell-based, human; details: read-out: IC50 single drug
[8] = test system: HUVEC umbilical endothelium; test: Cytotoxicity normal tissue 72 hr; format: cell-based, human
[9] = test system: Granta; test: Combination with BO-1055, MCL (Tables 28, 29); format: cell-based, human; details: read-out: IC50 single drug
[10] = Microsome stability; details: rat, microsomes
[11] = test system: MS-5 adult BM stroma; test: Cytotoxicity normal tissue 72 hr; format: cell-based, mouse
[12] = test system: Z-138; test: Cytotoxicity mantle cell lymphoma
Description: as §1

[13] = test system: SUDHL-6; details: human
Description: as §1

[14] = test system: REC-1; test: Combination with BO-1055, MCL (Tables 28, 29); format: cell-based, human; details: read-out: IC50 single drug
[15] = test system: CB CD34+ cells (+FCS); test: Cytotoxicity normal tissue; format: cell-based, human
[16] = in vitro; details: rat, microsomes
[17] = test system: BMEC-hTert BM endothelium; format: cell-based, human
[18] = test system: nude mice bearing prostate 22Rv/HL2 tumor xenografts; test: Pathological examination of organs and body weight, 22Rv/HL2 xenograft mice
[19] = in vitro; details: human, plasma
[20] = test system: NECB-1; test: Cytotoxicity mantle cell lymphoma; details: read-out: cytotoxicity IC50; NECB-1, mantle cell lymphoma
Description: as §1

[21] = test system: JEKO-1; details: human
Description: as §1

[22] = Plasma protein binding, equilibrium dialysis; format: in vitro ADME; details: rat plasma, read-out: % bound (converted)
Description: In drug discovery, the information on drug-plasma protein binding is valuable in evaluating and understanding, the absorption, distribution, metabolism and excretion (ADME)-related properties and the pharmacokinetic profile of drug candidates.

[23] = test system: A549; format: cell-based, human
[24] = test system: FTE-hTERT Fallopian epithelium; test: Cytotoxicity normal tissue 72 hr; format: cell-based, human
[25] = test system: H841; test: Cytotoxicity SCLC 72 hr alamar blue; format: cell-based, human
[26] = test system: H60; test: Cytotoxicity SCLC 72 hr alamar blue; format: cell-based, human
[27] = test system: H146; test: Cytotoxicity SCLC 72 hr alamar blue; format: cell-based, human
[28] = test system: H69; test: Cytotoxicity SCLC 72 hr alamar blue; format: cell-based, human
[29] = test system: H125; format: cell-based, human
[30] = test system: H525; format: cell-based, human
[31] = test system: H719; test: Cytotoxicity SCLC 72 hr alamar blue; format: cell-based, human
[32] = test system: CALU-3; format: cell-based, human
[33] = test system: H2228; format: cell-based, human
[34] = test system: H82; test: Cytotoxicity SCLC 72 hr alamar blue; format: cell-based, human
[35] = test system: HCC364; format: cell-based, human
[36] = test system: H647; format: cell-based, human
[37] = test system: H187; test: Cytotoxicity SCLC 72 hr alamar blue; format: cell-based, human
[38] = test system: IMR90 fetal lung myofibroblast; test: Cytotoxicity normal tissue 72 hr; format: cell-based, human
[39] = 30 mg/kg i.v. every other day x5
[40] = day 10, 30 mg/kg i.v. days 1,3,5,8,10

SMILES: CN(C)CCNC(=O)c1cccc(NC(=O)Nc2ccc(N(CCCl)CCCl)cc2)c1 [BO-1055, Ureidomustine]
- IC50 ([1]; Chlorocebus sabaeus, Fibroblast, 72 h): > 100 µM
- IC50 [2]: 8.95 µM
- IC50 ([3]; lines with WT Bcl2): ≥ 0.12 µM
- IC50 ([3]; two resistant lines): > 10 µM
- IC50 [4]: 3.86 µM
- increase in monocytes [5, 39]: 3-4 fold
- suppression of hematologic parameters [5, 39]: no significant suppression
- HCT [5, 40]: 46.30 ± 1.04%
- HGB [5, 40]: 13.08 ± 0.25 g/dL
- MCHC [5, 40]: 28.28 ± 0.42 g/dL
- MCV [5, 40]: 51.03 ± 1.25 fL
- MPV [5, 40]: 6.38 ± 0.09 fL
- PDW [5, 40]: 7.40 ± 0.24 fL
- PLT [5, 40]: 1108.3 ± 76.1 K/μL
- RBC [5, 40]: 9.08 ± 0.18 M/μL
- RDW-CV [5, 40]: 23.18 ± 0.64%
- RDW-SD [5, 40]: 32.48 ± 0.29 fL
- WBC [5, 40]: 5.34 ± 0.99 K/μL
- IC50 [6]: 0.61 µM
- IC50 [7]: 0.115 µM and 0.105 µM and 0.101 µM
- IC50 [8]: 50 µM
- IC50 [9]: 5.26 µM and 5.5 µM and 6.55 µM
- intrinsic clearance [10]: High intrinsic clearance
- IC50 ([11]; MS-5 (mouse), 72 hr): ≥ 10 µM
- IC50 ([12]; read-out: cytotoxicity IC50, Z-138, mantle cell lymphoma): 0.3 µM
- IC50 ([12]; read-out: mean IC50±SD, Z-138): 0.182 ± 0.15 µM
- IC50 [13]: 5.93 µM
- IC50 [14]: 17.7 µM and 12.5 µM and 19.3 µM
- IC50 ([15]; Homo sapiens, CB CD34+ cells, +FCS): > 10 µM
- IC50 ([15]; Homo sapiens, normal CB CD34+, FBS/FCS or serum free): 9.9 to 10.2 µM
- IC50 ([15]; normal CB CD34+, FBS/FCS or serum free): 8.5 to 10.5 µM
- half-life [16]: 29.7 min
- IC50 ([17]; BMEC-hTert, 72 hr): ≥ 10 µM
- average body-weight ([18]; after cessation of treatment): recovered on day 35-40
- pathological change in heart, liver, spleen, lung and kidney ([18]; day 42 after onset of drug administration): no apparent pathological change
- fraction unbound [19]: 0.01
- fraction unbound at 2 h [19]: 0.01
- IC50 [20]: 7.71 µM and 8.41 µM
- IC50 [21]: 0.27 µM
- fraction unbound at 2 h, 20 μM ([22]; 2 h): 0.0032
- fraction unbound at 4 h, 20 μM ([22]; 4 h): 0.0031
- fraction unbound at 6 h, 20 μM ([22]; 6 h): 0.0799
- fraction unbound at 24 h, 20 μM ([22]; 24 h): 0.248

SMILES: N.N.[Cl][Pt][Cl] [Cisplatin]
- IC50 ([1]; read-out: IC50): 97.9 µM
- IC50 ([8]; read-out: IC50): 50 µM
- IC50 [23]: ≥ 30 µM
- IC50 [24]: 100 µM
- IC50 [25]: ≥ 20 µM
- IC50 ([11]; read-out: IC50): 22 µM
- IC50 [26]: 2.09 µM
- IC50 [27]: 3.77 µM
- IC50 [28]: 3.42 µM
- IC50 [29]: 1.5 µM
- IC50 [30]: 7.74 µM
- IC50 [31]: 1.12 µM
- IC50 [32]: ≥ 100 µM
- IC50 [33]: ≥ 25 µM
- IC50 [34]: ≥ 20 µM
- IC50 [35]: ≥ 75 µM
- IC50 [36]: 8.75 µM
- IC50 ([17]; read-out: IC50): 20 µM
- IC50 [37]: 1.01 µM
- IC50 [38]: > 100 µM
